Publication PMC7556481 (PLoS Pathogens, 2020)

Biological target: T1, C. elegans ser-7a / SER-7 (Caenorhabditis elegans, UniProt Q22895)
T1 construct: ser-7a cDNA expressed pan-neuronally (Psnb-1) in C. elegans ser-7(tm1325) null mutant
T1 sequence (Q22895 1-435): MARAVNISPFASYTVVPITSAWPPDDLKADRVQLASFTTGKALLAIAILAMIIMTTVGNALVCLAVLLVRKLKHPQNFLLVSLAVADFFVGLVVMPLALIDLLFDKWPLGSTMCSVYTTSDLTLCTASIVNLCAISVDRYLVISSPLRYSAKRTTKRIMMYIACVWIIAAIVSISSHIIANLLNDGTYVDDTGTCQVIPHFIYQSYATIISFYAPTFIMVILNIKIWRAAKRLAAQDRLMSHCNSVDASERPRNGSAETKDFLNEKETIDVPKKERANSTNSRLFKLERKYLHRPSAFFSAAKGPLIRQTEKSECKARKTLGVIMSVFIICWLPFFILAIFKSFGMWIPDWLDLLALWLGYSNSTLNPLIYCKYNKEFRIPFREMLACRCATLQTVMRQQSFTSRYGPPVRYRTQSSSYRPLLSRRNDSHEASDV
Experiment: pharyngeal pumping of cut-head preparation, C. elegans ser-7 null expressing ser-7a
Conditions: agonist; Dent's saline pH 7.4, 0.1% BSA; response dependent on SER-7

## NCCc1c[nH]c2ccc(O)cc12 [serotonin]
  EC50: 782 nM
